# Source: US4486594A, “Thiazolidine derivatives and production thereof” (Takeda Chemical Industries, Ltd., priority 1982, dated 1984)
# Tests used:
# [1] = target: T1, partially purified aldose reductase preparation from human placenta (Homo sapiens, UniProt P15121); test: Aldose reductase inhibitory action; type: biochemical; settings: 10^-6 M; human placenta enzyme
# T1 construct: partially purified aldose reductase preparation from human placenta; from tissue; host or cells: human placenta
# Method: Aldose reductase inhibitory action was assayed in accordance with the method disclosed by S. Haymen et al. in Journal of Biological Chemistry, Vol. 240, p. 877 (1965) and that disclosed by Jin H. Kinoshita et al. in Metabolism, Vol. 28, Nr. 4, Suppl. 1, 462 (1979). The enzyme used in the assay was a partially purified aldose reductase preparation from human placenta. The results for the respective compounds were expressed as % inhibition at the concentration of 10^-6 mole and are shown in Table 1.
# [2] = test system: Sorbitol accumulation in lens; test: Inhibition of sorbitol accumulation in the lens of streptozotocin-diabetic rats; type: in vivo, Sprague-Dawley rats; settings: 25 mg/kg orally, twice a day for two days; relative to the control
# Method: (§1) Sprague-Dawley rats (male, 5-7 week old, five rats/group) were fasted for 18 hours. The rats were made diabetic by an intravenous injection of 70 mg/kg of streptozotocin (Produced by Cal Biochem) at the site of the tail under ether anesthesia. After the administration of streptozotocin, these rats were administered orally with 25 mg/kg of the test compounds (5% suspension of gum-arabica) for two days twice a day (at 9.00 a.m. and at 4.00 p.m.). During this period, these rats were allowed free access to CE-2 feedstuff (Produced by Clea Japan) and water while determining blood-sugar level of each animal. On the morning of the third day, these rats were decapitated and bled, then the lens and sciatic nerve were quickly excised. The respective contents of sorbitol in the lens and sciatic nerve were determined by the enzymatic assay method described by R. S. Clements et al., in Science, 166, p. 1007 (1969) applied to the extracts of these organs obtained by the method described by M. J. Peterson et al., in Metabolism, 28, 456 (1979).
# (§2) The results are shown in the Table below as % inhibition relative to the control. Incidentally, no significant difference in blood-sugar level was observed between the group of test animals to which the test compounds were administered and the control group of the test animals to which no test compounds were administered.
# [3] = test system: Sorbitol accumulation in sciatic nerve; test: Inhibition of sorbitol accumulation in the sciatic nerve of streptozotocin-diabetic rats; type: in vivo, Sprague-Dawley rats; settings: 25 mg/kg orally, twice a day for two days; relative to the control
# Method: as §1, §2
# mice = test: Oral acute toxicity in mice; type: in vivo
SMILES,inhibition at 1 µM [1] [%],"Inhibition of Sorbitol Accumulation (%), Lens [2] [%]","Inhibition of Sorbitol Accumulation (%), Sciatic Nerve [3] [%]",oral LD50 (mice)
"O=C1NC(=O)C(c2ccc3c(c2)CCCCC3)S1 (centres unmarked) [Example 1, 5-(6,7,8,9-tetrahydro-5H-benzocycloheptadien-2-yl)thiazolidine-2,4-dione]",34,65,83,–
"O=C1NC(=O)C(c2ccc3c(c2)CCCC3)S1 (centres unmarked) [Example 2, 5-(5,6,7,8-tetrahydro-2-naphthyl)thiazolidine-2,4-dione]",36,73,79,no less than 100 mg
"O=C1NC(=O)C(c2ccc3c(c2)CCC3)S1 (centres unmarked) [Example 4, 5-(5-indanyl)thiazolidine-2,4-dione]",30,62,66,–
Cc1ccc(C2SC(=O)NC2=O)cc1C (centres unmarked) [reference compound],–,18,5,–
COc1ccc(C2SC(=O)NC2=O)cc1OC (centres unmarked) [reference compound],–,62,-2,–
